“And” between values parts separate entries of the source, which are not always exact repeats. Equal values may be shown once.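 Protocol summary: plate cells (96-well), add compound at 5 concentrations, incubate 48 h, interpolate endpoints linearly. The concentration for 50% growth inhibition is given as GI50. The concentration for full growth arrest is given as TGI.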
Columns and labels:
Assay in all cases: growth of human tumour cells (NCI), 48 h
[1] = test system: UACC-62 melanoma
[2] = test system: UACC-257 melanoma
[3] = test system: SF-295 CNS
[4] = test system: HT29 colon
[5] = test system: DU-145 prostate
[6] = test system: MDA-N
[7] = test system: ACHN renal
[8] = test system: MDA-MB-231 breast
[9] = test system: NCI-H23 lung
[10] = test system: MOLT-4 leukemia
[11] = test system: IGROV1 ovarian
[12] = test system: HS 578T breast

| SMILES | TGI [1] [µM] | GI50 [2] [µM] | TGI [2] | GI50 [3] [µM] | TGI [3] | TGI [4] [µM] | GI50 [5] [µM] | TGI [5] | GI50 [6] [µM] | TGI [6] [µM] | GI50 [7] [µM] | TGI [7] | GI50 [8] [µM] | TGI [8] | TGI [9] | GI50 [10] [µM] | TGI [10] | TGI [11] [µM] | GI50 [12] [µM] | TGI [12] |
| --- | --- | --- | --- | --- | --- | --- | --- | --- | --- | --- | --- | --- | --- | --- | --- | --- | --- | --- | --- | --- |
| COC(=O)CN1Cc2cc(C)cc(c2O)CN(CC(=O)OC)Cc2cc(C)cc(c2O)CN(CC(=O)OC)Cc2cc(C)cc(c2O)CN(CC(=O)OC)Cc2cc(C)cc(c2O)C1 | > 100 | 50.4 | 50 µM and > 100 µM | 34.1 | 50 µM and > 100 µM | 50 | 33.3 | 50 µM and > 100 µM | 84.1 | > 100 | 34.6 | 50 µM and > 100 µM | 34.7 | 50 µM and > 100 µM | 50 µM and > 100 µM | 39.8 | 50 µM and > 100 µM | 50 | > 100 | 50 µM and > 100 µM |
| NC(=O)C1=C(O)[C@@]2(O)C(=O)C3=C(O)c4c(O)cccc4CC3C[C@H]2CC1=O (stereo not given in full) | 8.61 |  | 28.6 µM |  | 13.5 µM | 7.34 |  | 18.6 µM |  | 41.2 |  | 19.5 µM |  | 11.1 µM | 8.89 µM |  | 10.6 µM | 12.5 |  | 13.7 µM |
| N#Cc1c(C#N)c(SSc2c(C#N)c(C#N)c(N)n2-c2cccc3ccccc23)n(-c2cccc3ccccc23)c1N | 46.6 |  | 37.6 µM |  | 38.9 µM | 39.2 |  | 47.6 µM |  | 12.4 |  | 13.1 µM |  | 40.8 µM | > 63.2 µM |  | > 100 µM | > 100 |  | > 57.6 µM |
| Cc1ccc(NC(=O)c2cccc(OP(=O)(Nc3ccc(C)cc3)Nc3ccc(C)cc3)c2)cc1 | > 100 |  | > 100 µM |  | > 100 µM | 14.9 |  | > 100 µM |  | 21.7 |  | 20.6 µM |  | 16.1 µM | > 100 µM |  | 6.37 µM | > 100 |  | 79.9 µM |
| O=C1c2ccccc2C(=O)c2c1oc1cc(O)c(Cl)cc21 | 4.32 |  | 7.78 µM |  | 9.46 µM | 3.89 |  | 13.5 µM |  | 3.35 |  | 17 µM |  | 33.9 µM | 3.27 µM |  | > 62.5 µM | 31.3 |  | 15.5 µM |
| CC1=CC2(C)C=C[C@@H]1C(=O)[C@@]1(C)CC[C@@](O)(C(C)C)[C@H]1CC2 | 45.5 |  | 34.1 µM |  | 38.1 µM | 32.6 |  | 72.1 µM |  | 47.5 |  | 45.9 µM |  | 35.5 µM | 50.4 µM |  | 51.9 µM | 51.7 |  | 54.9 µM |
